From article PMC12040169 (PLOS Biology, 2025)

Assay: in vitro
Details: human, hela cells, % viability

## COc1ccc(-c2cc(C(=O)Nc3ccc(S(N)(=O)=O)cc3)c3ccccc3n2)cc1OC [CBK263635]
  viability at 28.5 h, 10 µM: 93.1%

## CSc1nc2ncnc(N3CCC(O)CC3)c2s1 [CBK022082]
  viability at 28.5 h, 10 µM: 84.4%

## CCN(CC)CCn1nc2n(c1=O)-c1ccccc1SC(c1ccccc1)C2 (stereo not shown) [CBK016064]
  viability at 28.5 h, 10 µM: 91.9%

## COC(=O)c1sccc1OCc1nnc(-c2ccc(Cl)c(Cl)c2)o1 [CBK067742]
  viability at 28.5 h, 10 µM: 96.5%

## CCc1nn(CC(=O)N2CCCCC2C)c(=O)c2cc3occc3n12 (stereo not shown) [CBK283676]
  viability at 28.5 h, 10 µM: 67.5%

## CCCCC1CCC(C(=O)Oc2ccccc2OCCO)CC1 (stereo not shown) [CBK081498]
  viability at 28.5 h, 10 µM: 90.6%

## O=C(NCCCOc1ccccc1)N1CCN(S(=O)(=O)c2ccc(C(F)(F)F)cc2)CC1 [CBK296686]
  viability at 28.5 h, 10 µM: 87.9%

## c1cnn(CC2CCCN2c2ncnc3sc4c(c23)CCNC4)c1 (stereo not shown) [CBK307490]
  viability at 28.5 h, 10 µM: 85.9%

## O=C(O)c1cc(S(=O)(=O)Nc2nnc(C(F)(F)F)s2)c(F)cc1Cl [CBK062022]
  viability at 28.5 h, 10 µM: 95%

## O=C(C[n+]1ccc(CCSCc2ccc3c4c(cccc24)CC3)cc1)c1ccc2c3c(cccc13)CC2 [CBK260881B]
  viability at 28.5 h, 10 µM: 96.4%

## O=C(CN1CCCCC1)Nc1ccc(NC(=O)CN2CCCCC2)cc1 [CBK265421]
  viability at 28.5 h, 10 µM: 86.3%

## COc1cc(C(=O)N2CCC3(CC2)CC(=O)c2ccc(C)cc2O3)ccc1O [CBK166045]
  viability at 28.5 h, 10 µM: 86.6%

## Cc1cccnc1NC(=O)c1cccc(C(=O)Nc2ncccc2C)c1 [CBK262184]
  viability at 28.5 h, 10 µM: 88.6%

## CCOc1ccc2nc(SCc3nc(N)nc(Nc4cccc(Cl)c4C)n3)sc2c1 [CBK265202]
  viability at 28.5 h, 10 µM: 83.1%

## O=C(C1CCCN(C2CCN(Cc3ccccc3)CC2)C1)N1CCN(c2ccccc2)CC1 (stereo not shown) [CBK265440G]
  viability at 28.5 h, 10 µM: 113%

## CC1CN(Cc2cccc(CNc3nccnc3C#N)c2)CCO1 (stereo not shown) [CBK304736]
  viability at 28.5 h, 10 µM: 94%

## CCOc1cc(C)c(C(C)C)cc1S(=O)(=O)NCCN1CCOCC1 [CBK268727]
  viability at 28.5 h, 10 µM: 110%

## CN1CCC[C@H]1C(=O)Nc1cc(-c2ccncc2)c[nH]c1=O [CBK116587]
  viability at 28.5 h, 10 µM: 107%

## O=c1c(N2CCN(CCOc3ccccc3)CC2)nccn1CCOc1cc(F)c(F)cc1F [CBK045934C]
  viability at 28.5 h, 10 µM: 103%

## CC(C)OC(=O)c1cc2c(ccn2-c2ccc(F)cc2)n1CCC#N [CBK123921]
  viability at 28.5 h, 10 µM: 95%

## O=C(C1=C(O)C(=O)N(CCCn2ccnc2)C1c1cccc([N+](=O)[O-])c1)c1ccc(F)cc1 (stereo not shown) [CBK264571]
  viability at 28.5 h, 10 µM: 97.8%

## CCCc1occc1C(=O)N1CCOCC1C(=O)O (stereo not shown) [CBK304151]
  viability at 28.5 h, 10 µM: 97.9%

## CS(=O)(=O)N1CCCC(C(=O)NCc2ccccn2)C1 (stereo not shown) [CBK269308]
  viability at 28.5 h, 10 µM: 101%

## COc1ccc(C(=O)C2=C(O)C(=O)N(CCN3CCOCC3)C2c2ccc(O)c(OC)c2)c(C)c1 (stereo not shown) [CBK264858]
  viability at 28.5 h, 10 µM: 88%

## CCc1nnc(CN(CC2CCCO2)C2CCC(C)CC2)n1C (stereo not shown) [CBK304475]
  viability at 28.5 h, 10 µM: 106%

## O=C(O)c1ccc(NC(=O)c2ccc(S(=O)(=O)N3CCCCC3)cc2)cc1 [CBK267813]
  viability at 28.5 h, 10 µM: 94.2%

## Cc1cc(C)n(C)c(=O)c1C(=O)NC(C)Cc1ccccn1 (stereo not shown) [CBK283063]
  viability at 28.5 h, 10 µM: 105%

## CCCOCC1CCN(C(=O)Nc2ccc(Oc3cccnc3)cc2)C1 (stereo not shown) [CBK306799]
  viability at 28.5 h, 10 µM: 102%

## COCCNC(=O)N[C@H](Cc1ccccc1)C(=O)O [CBK286667]
  viability at 28.5 h, 10 µM: 85.5%

## CN(Cc1nnc(C2CC2)n1C)C1CCN(CCCc2cn[nH]c2)C1 (stereo not shown) [CBK305305]
  viability at 28.5 h, 10 µM: 85.2%

## CC(=O)Nc1c(O)nc(SCC(=O)Nc2ccc(C(C)=O)cc2)[nH]c1=O [CBK268527]
  viability at 28.5 h, 10 µM: 106%

## Cc1cccc(Nc2nc(N/N=C/c3c[nH]nc3-c3ccccc3)nc(N3CCC(C)CC3)n2)c1C [CBK262498]
  viability at 28.5 h, 10 µM: 89.3%

## CC(=O)Nc1ccc(S(=O)(=O)N2CCN(C(=O)c3ccco3)CC2)cc1 [CBK068319]
  viability at 28.5 h, 10 µM: 90.5%

## O=C(NCCN1CCCC1)C1CCCN(c2nc3c(-c4ccccc4)csc3c(=O)[nH]2)C1 (stereo not shown) [CBK215507]
  viability at 28.5 h, 10 µM: 109%

## COc1ccnc(N2CCN(C(=O)c3ccncc3Cl)CC2)n1 [CBK304367]
  viability at 28.5 h, 10 µM: 102%

## Cc1csc(C(Cc2ccsc2)NC(=O)Cc2ccccn2)n1 (stereo not shown) [CBK285097]
  viability at 28.5 h, 10 µM: 94.9%

## CN(Cc1ccncc1)C(=O)c1cccc(S(=O)(=O)NCC2CC2)c1 [CBK305365]
  viability at 28.5 h, 10 µM: 95.6%

## CN(C(=O)C1(NC(N)=O)CC1)c1nc2c(s1)CC(c1ccccc1)CC2 (stereo not shown) [CBK306022]
  viability at 28.5 h, 10 µM: 93%

## Nc1ncc(-c2cncnc2)nc1NCc1ccccc1 [CBK063584]
  viability at 28.5 h, 10 µM: 103%

## Cn1c(S)nnc1-c1ccccc1F [CBK028811]
  viability at 28.5 h, 10 µM: 95%

## O=C(Nc1cccnc1)c1cccc(S(=O)(=O)N2CCCC2)c1 [CBK269846]
  viability at 28.5 h, 10 µM: 93.3%

## Cn1ccnc1C(NC(=O)N1CCOCC1)c1ccc(F)c(F)c1 (stereo not shown) [CBK283781]
  viability at 28.5 h, 10 µM: 87.4%

## CC(C)S(=O)(=O)N1CC2CCCC(O)(c3cccc(F)c3)C2C1 (stereo not shown) [CBK283109]
  viability at 28.5 h, 10 µM: 109%

## CCN1CCC[C@@H]1CNC(=O)c1cc(Cl)nc(OC)c1 [CBK174692]
  viability at 28.5 h, 10 µM: 88.3%

## Cc1nnnn1-c1cc(NC(=O)NCCc2ccnn2C)ccc1F [CBK306428]
  viability at 28.5 h, 10 µM: 87.8%

## CCCOc1ncccc1O [CBK001459]
  viability at 28.5 h, 10 µM: 89.7%

## Cc1cc(OCC(=O)Nc2ccc(S(=O)(=O)N3CCOCC3)cc2)ccc1[N+](=O)[O-] [CBK268114]
  viability at 28.5 h, 10 µM: 113%

## Cn1cc(-c2nccnc2OCCN2CCCC2=O)cn1 [CBK107068]
  viability at 28.5 h, 10 µM: 106%

## O=C(CSCc1ccc(Br)cc1)N1CCN(Cc2ccc3c(c2)OCO3)CC1 [CBK268059]
  viability at 28.5 h, 10 µM: 89.7%

## CSCCC(=O)Nc1cccc2[nH]ccc12 [CBK159655]
  viability at 28.5 h, 10 µM: 105%

## Cc1ccc2[nH]c([C@H]3CCN(C(=O)NC(C)C)C3)nc2c1 [CBK289375]
  viability at 28.5 h, 10 µM: 90.8%

## CCCc1ccc(-c2cc(C(=O)NCc3cccnc3)c3ccccc3n2)cc1 [CBK300494]
  viability at 28.5 h, 10 µM: 92.6%

## CC(=O)c1cc(C(=O)Nc2ccc(NC(=O)C(=O)O)cc2)oc1C [CBK264011]
  viability at 28.5 h, 10 µM: 95.4%

## CCOC(=O)c1csc(COc2ccccc2Cl)n1 [CBK057782]
  viability at 28.5 h, 10 µM: 113%

## CN1CCN(Cc2c(-c3ccc(F)cc3)[nH]c3ncccc23)CC1 [CBK285335]
  viability at 28.5 h, 10 µM: 85.4%

## OC(COc1cccc2c1CCCC2)CN1CCC(O)(c2ccc(Br)cc2)CC1 (stereo not shown) [CBK003584]
  viability at 28.5 h, 10 µM: 72%

## NCC1CCN(c2cc(C(F)(F)F)c3scc(C(=O)NCc4cccc(F)c4F)c3n2)CC1 [CBK036391T]
  viability at 28.5 h, 10 µM: 71.6%

## CSCc1nnc(SCc2ccccc2Oc2ccccc2)o1 [CBK296743]
  viability at 28.5 h, 10 µM: 99.2%

## O=c1c2ccccc2nc(S)n1CC(O)c1ccccc1 (stereo not shown) [CBK288386]
  viability at 28.5 h, 10 µM: 85.8%

## O=C(CN1CCN(S(=O)(=O)N2CCCCCC2)CC1)Nc1cc(Cl)ccc1Cl [CBK269587]
  viability at 28.5 h, 10 µM: 90.1%

## O=C(CSc1nnc(-c2cccs2)n1-c1ccccc1)c1c[nH]c2ccccc12 [CBK268452]
  viability at 28.5 h, 10 µM: 101%

## O=S(=O)(Nc1nc2c(s1)CCCC2)c1ccc(Br)cc1 [CBK097787]
  viability at 28.5 h, 10 µM: 89.7%

## CC(=O)N[C@H]1C[C@@H](Cc2cc(CCO)on2)C1(C)C [CBK289243]
  viability at 28.5 h, 10 µM: 99.7%

## O=C1NC2=C(C(=O)N(CC3CCCO3)C2)C(c2cccc(F)c2)N1 (stereo not shown) [CBK282364]
  viability at 28.5 h, 10 µM: 86.1%
